# Test results reported in ChEMBL document CHEMBL5149980, “The Alpha Keto Amide Moiety as a Privileged Motif in Medicinal Chemistry: Current Insights and Emerging Opportunities” (J Med Chem, 2021).
# How the values were obtained:
# [1] = target: Replicase polyprotein 1ab (Severe acute respiratory syndrome coronavirus 2, UniProt P0DTD1); test: Inhibition of SARS-Cov-2 Main protease
# [2] = target: Translocator protein (Rattus norvegicus) (UniProt P16257); test: Activation of TSPO in rat C6 glioma cells assessed as increase in pregnenolone incubated for 2 hrs by radioimmuno assay; assay type: cell-based; parameters: concentration or dose not given beside the values; conditions: filed as activator
# Sequence of Translocator protein (Rattus norvegicus) (P16257 whole entry, looked up): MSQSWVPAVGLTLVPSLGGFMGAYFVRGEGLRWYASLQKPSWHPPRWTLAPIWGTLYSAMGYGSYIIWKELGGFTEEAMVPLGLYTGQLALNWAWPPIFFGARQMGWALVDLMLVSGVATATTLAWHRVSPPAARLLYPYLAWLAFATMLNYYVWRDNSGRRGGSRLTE
# Bacillus cereus = test: Antibacterial activity against Bacillus cereus assessed as bacterial growth inhibition by microdilution analysis; assay type: functional
# Staphylococcus aureus [3] = test: Antibacterial activity against Staphylococcus aureus assessed as bacterial growth inhibition by microdilution analysis; assay type: functional
# Escherichia coli [4] = test: Antibacterial activity against Escherichia coli assessed as bacterial growth inhibition by microdilution analysis; assay type: functional
# Pseudomonas putida = test: Antibacterial activity against Pseudomonas putida assessed as bacterial growth inhibition by microdilution analysis; assay type: functional
# Staphylococcus aureus [5] = test: Antibacterial activity against Staphylococcus aureus assessed as bacterial growth inhibition incubated for 24 hrs by microplate reader analysis; assay type: functional
# [6] = target: Calpain-1 catalytic subunit (Homo sapiens, UniProt P07384); test: Inhibition of human Calpain I assessed as dissociation constant using Suc-Leu-Tyr-AMC as substrate preincubated for 15 mins followed by compound addition and measured after 40 mins by […]
# Sequence of Calpain-1 catalytic subunit (P07384 whole entry): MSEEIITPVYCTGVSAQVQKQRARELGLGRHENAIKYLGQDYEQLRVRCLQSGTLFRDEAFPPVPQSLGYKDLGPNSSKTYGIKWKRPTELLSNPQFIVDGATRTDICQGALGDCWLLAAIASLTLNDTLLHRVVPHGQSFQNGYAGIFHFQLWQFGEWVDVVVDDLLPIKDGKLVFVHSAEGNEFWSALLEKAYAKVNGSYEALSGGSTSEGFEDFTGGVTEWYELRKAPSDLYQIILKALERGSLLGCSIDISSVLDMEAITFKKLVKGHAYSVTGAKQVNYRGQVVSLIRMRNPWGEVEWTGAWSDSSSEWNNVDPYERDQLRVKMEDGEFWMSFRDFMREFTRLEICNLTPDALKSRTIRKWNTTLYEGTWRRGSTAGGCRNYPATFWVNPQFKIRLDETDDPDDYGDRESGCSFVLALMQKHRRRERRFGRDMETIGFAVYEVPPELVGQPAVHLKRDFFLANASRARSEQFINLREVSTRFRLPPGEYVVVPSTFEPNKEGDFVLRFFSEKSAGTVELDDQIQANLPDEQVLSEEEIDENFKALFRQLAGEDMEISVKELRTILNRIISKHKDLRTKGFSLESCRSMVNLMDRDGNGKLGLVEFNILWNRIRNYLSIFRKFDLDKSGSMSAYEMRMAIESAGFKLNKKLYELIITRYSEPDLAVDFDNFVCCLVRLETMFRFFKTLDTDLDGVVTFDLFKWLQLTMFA
# Cathepsin B = Cathepsin B (Homo sapiens, UniProt P07858); test: Inhibition of human Cathepsin B assessed as inhibition constant
# Cathepsin K = Cathepsin K (Homo sapiens, UniProt P43235); test: Inhibition of human Cathepsin K assessed as inhibition constant
# Sequence of Cathepsin K (P43235 whole entry): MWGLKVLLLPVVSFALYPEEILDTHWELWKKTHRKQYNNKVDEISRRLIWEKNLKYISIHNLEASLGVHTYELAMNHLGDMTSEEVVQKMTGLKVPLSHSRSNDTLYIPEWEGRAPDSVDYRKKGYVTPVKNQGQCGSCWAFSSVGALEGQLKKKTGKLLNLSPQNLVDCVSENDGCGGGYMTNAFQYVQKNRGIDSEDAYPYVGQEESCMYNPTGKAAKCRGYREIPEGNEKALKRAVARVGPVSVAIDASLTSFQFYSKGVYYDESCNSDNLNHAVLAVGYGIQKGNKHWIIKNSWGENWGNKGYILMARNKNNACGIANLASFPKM
# Procathepsin L = Procathepsin L (Homo sapiens, UniProt P07711); test: Inhibition of human Cathepsin L assessed as inhibition constant
# Sequence of Procathepsin L (P07711 whole entry): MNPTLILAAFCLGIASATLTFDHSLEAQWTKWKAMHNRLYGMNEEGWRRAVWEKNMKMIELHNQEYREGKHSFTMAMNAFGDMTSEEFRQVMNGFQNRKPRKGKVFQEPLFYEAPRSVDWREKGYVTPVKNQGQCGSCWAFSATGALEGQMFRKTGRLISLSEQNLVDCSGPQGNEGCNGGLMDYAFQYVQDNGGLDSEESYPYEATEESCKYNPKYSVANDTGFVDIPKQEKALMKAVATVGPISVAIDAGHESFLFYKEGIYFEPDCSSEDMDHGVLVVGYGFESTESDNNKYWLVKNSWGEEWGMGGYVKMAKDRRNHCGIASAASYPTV
# Cathepsin S = Cathepsin S (Homo sapiens, UniProt P25774); test: Inhibition of human Cathepsin S assessed as inhibition constant
# Sequence of Cathepsin S (P25774 whole entry): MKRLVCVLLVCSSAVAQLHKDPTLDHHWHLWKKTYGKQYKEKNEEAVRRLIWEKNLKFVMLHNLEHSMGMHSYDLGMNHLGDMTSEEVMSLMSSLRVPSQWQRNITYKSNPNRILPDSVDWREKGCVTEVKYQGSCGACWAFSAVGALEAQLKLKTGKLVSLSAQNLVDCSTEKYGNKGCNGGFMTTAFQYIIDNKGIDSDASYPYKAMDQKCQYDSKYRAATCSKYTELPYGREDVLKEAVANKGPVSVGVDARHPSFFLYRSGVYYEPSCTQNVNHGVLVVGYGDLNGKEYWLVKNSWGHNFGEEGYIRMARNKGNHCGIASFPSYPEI
# [7] = target: Dipeptidyl peptidase 1 (Homo sapiens) (UniProt P53634); test: Inhibition of human Cathepsin C assessed as inhibition constant at 10 uM relative to control
# Sequence of Dipeptidyl peptidase 1 (Homo sapiens) (P53634 25-134 limits assumed): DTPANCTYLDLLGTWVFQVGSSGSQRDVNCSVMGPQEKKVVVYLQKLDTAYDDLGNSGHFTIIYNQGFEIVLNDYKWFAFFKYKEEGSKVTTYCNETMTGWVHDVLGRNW
# Sequence of Dipeptidyl peptidase 1 (Homo sapiens) (P53634 231-394 limits assumed): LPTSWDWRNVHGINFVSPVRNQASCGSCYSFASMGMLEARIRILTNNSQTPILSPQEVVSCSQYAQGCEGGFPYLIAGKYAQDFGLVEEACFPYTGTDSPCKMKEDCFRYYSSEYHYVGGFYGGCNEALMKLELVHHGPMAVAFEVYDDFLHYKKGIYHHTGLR
# Sequence of Dipeptidyl peptidase 1 (Homo sapiens) (P53634 395-463 limits assumed): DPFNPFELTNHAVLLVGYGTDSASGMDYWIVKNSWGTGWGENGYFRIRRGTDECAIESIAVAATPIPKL
# Homo sapiens = species: Homo sapiens; test: Inhibition of human Cathepsin H assessed as inhibition constant at 10 uM relative to control
# Translocator protein [8] = target: T1, Translocator protein (Homo sapiens, UniProt P30536); test: Displacement of [3H] PK11195 from TSPO (unknown origin) assessed as inhibition constant
# T1 sequence (P30536 whole entry): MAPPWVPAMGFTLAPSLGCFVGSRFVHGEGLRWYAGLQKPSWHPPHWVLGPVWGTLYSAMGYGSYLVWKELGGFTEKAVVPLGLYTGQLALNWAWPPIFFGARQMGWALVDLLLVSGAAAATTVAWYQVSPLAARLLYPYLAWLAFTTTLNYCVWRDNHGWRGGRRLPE
# [9] = target: T2, Phospholipase A2, membrane associated (Homo sapiens, UniProt P14555); test: Inhibition of human group IIA phospholipase A2 incubated for 30 mins by automatic plate reader analysis
# T2 sequence (P14555 whole entry): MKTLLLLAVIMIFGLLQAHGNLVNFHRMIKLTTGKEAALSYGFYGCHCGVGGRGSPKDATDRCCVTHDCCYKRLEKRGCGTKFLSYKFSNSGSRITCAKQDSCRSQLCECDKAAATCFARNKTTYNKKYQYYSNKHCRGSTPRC
# Translocator protein [10] = target: T1, Translocator protein; test: Displacement of [3H] PK11195 from TSPO in human U-87 MGcell membrane assessed as inhibition constant; assay type: cell membranes, U-87 MG
# [11] = target: GABA-A receptor; alpha-1/beta-2/gamma-2 (Homo sapiens) (UniProt P14867+P47870+P18507); test: Inhibition of alpha1beta2gamma2 GABAA receptor (unknown origin) relative to control; assay type: protein-complex assay
# [12] = target: GABA A receptor alpha-2/beta-2/gamma-2 (Homo sapiens) (UniProt P47870+P18507+P47869); test: Inhibition of alpha2beta2gamma2 GABAA receptor (unknown origin) relative to control; assay type: protein-complex assay
# [13] = target: GABA-A receptor; alpha-5/beta-3/gamma-2 (Homo sapiens) (UniProt P18507+P28472+P31644); test: Inhibition of alpha5beta3gamma2 GABAA receptor (unknown origin) relative to control; assay type: protein-complex assay
# [14] = target: T2, Phospholipase A2, membrane associated; test: Inhibition of human group IIA phospholipase A2 preincubated with compound for 10 mins followed by enzyme addition and measured after 30 mins by PC/DOC assay
# [15] = target: Group IIE secretory phospholipase A2 (Homo sapiens, UniProt Q9NZK7); test: Inhibition of human group IIE phospholipase A2 expressed in Escherichia coli BL21 cells incubated for 10 to 20 mins cells by radiometric assay
# Sequence of Group IIE secretory phospholipase A2 (Homo sapiens, UniProt Q9NZK7) (Q9NZK7 whole entry): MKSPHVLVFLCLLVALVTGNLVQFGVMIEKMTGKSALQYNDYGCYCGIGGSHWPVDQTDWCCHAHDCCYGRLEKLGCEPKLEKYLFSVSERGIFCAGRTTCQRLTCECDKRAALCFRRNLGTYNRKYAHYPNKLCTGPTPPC
# Phospholipase A2 group V [16] = target: Phospholipase A2 group V (Homo sapiens, UniProt P39877); test: Inhibition of human group V phospholipase A2 expressed in Escherichia coli BL21(DE3) cells incubated for 10 to 20 mins cells by radiometric assay
# Sequence of Phospholipase A2 group V (Homo sapiens, UniProt P39877) (P39877 whole entry): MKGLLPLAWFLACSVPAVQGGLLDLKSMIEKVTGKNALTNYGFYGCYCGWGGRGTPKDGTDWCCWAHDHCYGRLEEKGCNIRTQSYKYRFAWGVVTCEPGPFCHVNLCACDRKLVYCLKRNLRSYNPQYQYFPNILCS
# Phospholipase A2 [17] = target: Phospholipase A2 (Homo sapiens, UniProt P04054); test: Inhibition of human group IB phospholipase A2 expressed in Escherichia coli BL21 cells incubated for 10 to 20 mins cells by radiometric assay
# Sequence of Phospholipase A2 (Homo sapiens, UniProt P04054) (P04054 whole entry): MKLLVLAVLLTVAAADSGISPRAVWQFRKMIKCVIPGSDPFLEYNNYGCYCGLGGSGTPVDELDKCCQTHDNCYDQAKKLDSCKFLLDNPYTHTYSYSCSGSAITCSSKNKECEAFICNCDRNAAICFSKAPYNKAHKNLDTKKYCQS
# [18] = target: Phospholipase A2, membrane associated (Mus musculus, UniProt P31482); test: Inhibition of mouse group IIA phospholipase A2 incubated for 10 to 20 mins cells by radiometric assay
# Sequence of Phospholipase A2, membrane associated (Mus musculus, UniProt P31482) (P31482 whole entry): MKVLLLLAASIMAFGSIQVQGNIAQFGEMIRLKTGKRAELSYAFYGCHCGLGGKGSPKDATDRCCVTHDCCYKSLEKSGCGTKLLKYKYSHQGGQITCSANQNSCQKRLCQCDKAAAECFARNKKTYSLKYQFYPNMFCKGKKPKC
# [19] = target: T2, Phospholipase A2, membrane associated; test: Inhibition of human group IIA phospholipase A2 incubated for 10 to 20 mins cells by radiometric assay
# [20] = target: Group IIC secretory phospholipase A2 (Mus musculus, UniProt P48076); test: Inhibition of mouse group IIC phospholipase A2 incubated for 10 to 20 mins cells by radiometric assay
# Sequence of Group IIC secretory phospholipase A2 (P48076 whole entry): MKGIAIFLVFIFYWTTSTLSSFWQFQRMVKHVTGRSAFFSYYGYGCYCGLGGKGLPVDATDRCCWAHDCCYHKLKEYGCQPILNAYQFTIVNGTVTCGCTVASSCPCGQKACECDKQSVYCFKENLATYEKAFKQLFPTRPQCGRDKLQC
# [21] = target: Group IIE secretory phospholipase A2 (Mus musculus, UniProt Q9QUL3); test: Inhibition of mouse group IIE phospholipase A2 incubated for 10 to 20 mins cells by radiometric assay
# Sequence of Group IIE secretory phospholipase A2 (Mus musculus, UniProt Q9QUL3) (Q9QUL3 whole entry): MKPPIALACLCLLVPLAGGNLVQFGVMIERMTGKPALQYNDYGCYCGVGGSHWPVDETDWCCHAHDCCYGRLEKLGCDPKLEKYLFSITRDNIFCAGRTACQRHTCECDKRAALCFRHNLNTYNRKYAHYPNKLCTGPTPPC
# Phospholipase A2 group V [22] = target: Phospholipase A2 group V (Mus musculus, UniProt P97391); test: Inhibition of mouse group V phospholipase A2 incubated for 10 to 20 mins cells by radiometric assay
# Sequence of Phospholipase A2 group V (Mus musculus, UniProt P97391) (P97391 whole entry): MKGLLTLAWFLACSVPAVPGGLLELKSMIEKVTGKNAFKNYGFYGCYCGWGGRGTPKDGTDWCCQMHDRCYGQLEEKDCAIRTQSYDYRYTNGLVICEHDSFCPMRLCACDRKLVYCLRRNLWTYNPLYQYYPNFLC
# Phospholipase A2 [23] = target: Phospholipase A2 (Mus musculus, UniProt Q9Z0Y2); test: Inhibition of mouse group IB phospholipase A2 incubated for 10 to 20 mins cells by radiometric assay
# Sequence of Phospholipase A2 (Mus musculus, UniProt Q9Z0Y2) (Q9Z0Y2 whole entry): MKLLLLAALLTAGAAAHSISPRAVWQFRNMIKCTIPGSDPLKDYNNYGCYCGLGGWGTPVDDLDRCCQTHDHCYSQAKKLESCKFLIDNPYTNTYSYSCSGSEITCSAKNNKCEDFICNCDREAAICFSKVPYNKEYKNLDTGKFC
# [24] = target: Group 10 secretory phospholipase A2 (Mus musculus, UniProt Q9QXX3); test: Inhibition of mouse group X phospholipase A2 incubated for 10 to 20 mins cells by radiometric assay
# Sequence of Group 10 secretory phospholipase A2 (Mus musculus, UniProt Q9QXX3) (Q9QXX3 whole entry): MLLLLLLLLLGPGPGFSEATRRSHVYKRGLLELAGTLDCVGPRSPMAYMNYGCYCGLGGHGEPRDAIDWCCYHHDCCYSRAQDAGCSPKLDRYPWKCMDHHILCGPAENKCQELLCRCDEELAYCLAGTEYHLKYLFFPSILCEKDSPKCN
# [25] = target: Group 10 secretory phospholipase A2 (Homo sapiens, UniProt O15496); test: Inhibition of human group X phospholipase A2 incubated for 10 to 20 mins cells by radiometric assay
# Sequence of Group 10 secretory phospholipase A2 (Homo sapiens, UniProt O15496) (O15496 whole entry): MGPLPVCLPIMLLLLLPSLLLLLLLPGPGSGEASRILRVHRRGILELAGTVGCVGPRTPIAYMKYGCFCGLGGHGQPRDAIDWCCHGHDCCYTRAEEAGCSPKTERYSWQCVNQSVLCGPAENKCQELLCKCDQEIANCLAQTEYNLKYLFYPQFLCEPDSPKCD
# Staphylococcus aureus [26] = test: Antibacterial activity against Staphylococcus aureus SA38 infected in MRC5 assessed as bacterial growth inhibition by alamar blue assay; assay type: functional
# Translocator protein [27] = target: Translocator protein (Rattus norvegicus, UniProt P16257); test: Displacement of [3H]-PK11195 from rat kidney mitochondrial membrane TSPO receptor assessed as inhibition constant; assay type: cell membranes
# Sequence of Translocator protein (Rattus norvegicus, UniProt P16257) (P16257 whole entry, looked up): as the sequence (P16257 whole entry, looked up) above
# [28] = Inhibition of SARS-CoV Main protease; parameters: species or system Severe acute respiratory syndrome-related coronavirus
# [29] = Inhibition of MERS-CoV Main protease; parameters: species or system Middle East respiratory syndrome-related coronavirus
# Pseudomonas aeruginosa = test: Inhibition of quorum sensing system in Pseudomonas aeruginosa MH602 assessed as GFP level incubated for 15 hrs at 250 uM by microplate titre analysis relative to control; assay type: functional
# Escherichia coli [30] = test: Inhibition of quorum sensing system in Escherichia coli MT102 assessed as GFP level incubated for 22 hrs at 250 uM by microplate titre analysis relative to control; assay type: functional
# SARS-CoV-2 = test: Antiviral activity against SARS-CoV-2 infected in human Calu-3 cells; assay type: functional, organism-based; conditions: Severe acute respiratory syndrome coronavirus 2, Calu-3
structure (smiles),measurement,setting,value
CC(C)(C)OC(=O)Nc1cccn([C@@H](CC2CCCCC2)C(=O)N[C@@H](C[C@@H]2CCNC2=O)C(=O)C(=O)NCc2ccccc2)c1=O,IC50,[1],2390 nM
CCC(C)N(C)C(=O)c1cc2ccccc2c(-c2ccccc2Cl)n1 (stereo not given),Activity,[2],48%
CCCCN(CCCC)C(=O)C(=O)c1c(-c2ccc(Cl)cc2)[nH]c2ccc(Cl)cc12,Activity,[2],147%
O=C(Nc1ccc(F)cc1)C(=O)c1ccc2c(c1)c1ccccc1n2Cc1ccc(Cl)cc1,MIC,Bacillus cereus,16 µg/mL
same,MIC,Staphylococcus aureus [3],> 8 µg/mL
same,MIC,Escherichia coli [4],8 µg/mL
same,MIC,Pseudomonas putida,16 µg/mL
C[N+](C)(C)CCCNC(=O)C(=O)c1cc(Br)ccc1NC(=O)c1ccc2ccccc2c1.[Cl-],MIC,Staphylococcus aureus [5],16 µg/mL
CCN(CC)c1ccc(/C=C/c2ccccc2C(=O)NC(Cc2ccccc2)C(=O)C(N)=O)cc1 (stereo not given),Ki,[6],56 nM
same,Ki,Cathepsin B,28 nM
same,Ki,Cathepsin K,1.8 nM
same,Ki,Procathepsin L,137 nM
same,Ki,Cathepsin S,3290 nM
same,inhibition,[7],94%
same,inhibition,Homo sapiens,84%
CCOC(=O)[C@@H](Cc1ccccc1)NC(=O)[C@H](CC(C)C)NC(=O)C(=O)c1c(-c2ccccc2)[nH]c2ccccc12,Ki,Translocator protein [8],438 nM
CCc1c(C(=O)C(N)=O)c2c(OCC(O)CC)cccn2c1Cc1cccc(Cl)c1 (stereo not given),IC50,[9],19000 nM
CCOC(=O)[C@@H](Cc1ccccc1)NC(=O)[C@H](CC(C)C)NC(=O)C(=O)c1c(-c2ccccc2)[nH]c2ccc(N=C=S)cc12,Ki,Translocator protein [10],108 nM
CCCCCCN(CCCCCC)C(=O)C(=O)c1c(-c2ccc(Cl)cc2)[nH]c2ccc(Cl)cc12,Activity,[2],166%
O=C(NCc1ccccc1)C(=O)c1c[nH]c2ccc([N+](=O)[O-])cc12,inhibition,[11],65%
same,inhibition,[12],32%
same,inhibition,[13],44%
C[N+](C)(C)CCCNC(=O)C(=O)c1cc(Br)ccc1NC(=O)c1ccc2ccccc2c1.[I-],MIC,Staphylococcus aureus [5],39 µg/mL
Cc1c(C(=O)C(N)=O)c2c(OCC(=O)O)cccn2c1Cc1ccccc1-c1ccccc1,IC50,[14],1.4 nM
same,IC50,[15],10 nM
same,IC50,Phospholipase A2 group V [16],10 nM
same,IC50,Phospholipase A2 [17],100 nM
same,IC50,[18],10 nM
same,IC50,[19],10 nM
same,IC50,[20],10 nM
same,IC50,[21],10 nM
same,IC50,Phospholipase A2 group V [22],10 nM
same,IC50,Phospholipase A2 [23],100 nM
same,IC50,[24],100 nM
same,IC50,[25],100 nM
CC(C)C[C@H](NC(=O)C(=O)c1c(-c2ccccc2)[nH]c2ccccc12)C(=O)N[C@H](Cc1ccccc1)C(=O)O,Ki,Translocator protein [8],202 nM
CCCCCCCCCS(=O)(=O)Nc1ccc(Br)cc1C(=O)C(=O)NCCCNC(=N)N,MIC,Staphylococcus aureus [26],12 µM
CN1C(=O)CN=C(c2ccc(Cl)cc2)c2cc(Cl)ccc21,Activity,[2],41%
CCCN(CCC)C(=O)C(=O)c1c(-c2ccccc2)[nH]c2ccc(C)cc12,Ki,Translocator protein [27],5.5 nM
same,Activity,[2],148%
CCc1c(CC(N)=O)c2c(OCC(=O)O)cccn2c1Cc1cccc2ccccc12,IC50,[9],30 nM
same,IC50,[14],5 nM
Cc1c(C(=O)C(N)=O)c2c(OCn3cnnn3)cccn2c1Cc1ccccc1-c1ccccc1,IC50,[9],7 nM
same,IC50,[14],7 nM
CC(C)(C)OC(=O)Nc1cccn([C@@H](CC2CC2)C(=O)N[C@@H](C[C@@H]2CCNC2=O)C(=O)C(=O)NCc2ccccc2)c1=O,IC50,[28],900 nM
same,IC50,[29],580 nM
CCc1c(C(=O)C(=O)NC)c2c(OCC(=O)O)cccn2c1Cc1ccccc1,IC50,[9],> 50000 nM
CCOC(=O)CNC(=O)C(=O)c1ccccc1Nc1ccc([N+](=O)[O-])cc1[N+](=O)[O-],inhibition,Pseudomonas aeruginosa,48.7%
same,inhibition,Escherichia coli [30],73.6%
Nc1cccn([C@@H](CC2CC2)C(=O)N[C@@H](C[C@@H]2CCNC2=O)C(=O)C(=O)NCc2ccccc2)c1=O,EC50,SARS-CoV-2,4000 nM
